Paper PMC11595864, “Design, Synthesis, and Evaluation of Novel Thiazole-Containing Algicides Inspired by Bacillamide A” (Marine Drugs, 2024)
Values after ≈ are worked out from the molar mass of the structure shown. Where two headings read alike, the source gives them in different places.

How the values were obtained:
[1] = system: S. costatum; test: Algicidal activity assay, EC50; assay type: cell-based, Skeletonema costatum; details: for EC50: Skeletonema costatum, read-out: EC50 S. costatum
Protocol: (§1) P. minimum, A. pacificum, and S. costatum were purchased from Guangyu Biological Technology Co., Ltd. (Shanghai, China). The algae strain was cultured in F/2 medium ((12 h light: 12 h dark cycle), 20 ± 1 °C, 70 μmol m^−2 s^−1). Purchased algae were transferred to sterile conical flasks for culture; after the algae proliferation was stabilized, the expanded culture was next carried out following standard conditions.
(§2) Copper sulfate and Diuron were used as the positive controls. EC50 values were calculated according to the equation of the quantity–effect relationship in Equation (2) using the Hill model of Graph Pad Prism software (8.0.2). (2) Y=Bottom+(Top-Bottom)/1+10^(Log EC50-X)×Hill Slope
(§3) The X and Y values represent the concentration (mg/L) and response values of the control and experimental groups, respectively. The Top, Bottom, and Hill Slope represent the maximum response, minimum response, and the curve slope, respectively. The EC50 represents half of the maximum effective concentration.

[2] = system: P. minimum; test: Algicidal activity assay, EC50; assay type: cell-based, Prorocentrum minimum; details: Prorocentrum minimum, read-out: EC50 P. minimum
Protocol: as §1, §2, §3

[3] = system: A. pacificum; test: Algicidal activity assay, EC50; assay type: cell-based, Alexandrium pacificum; details: Alexandrium pacificum; Mean ± SD, n = 3
Protocol: as §1, §2, §3

[4] = system: A. pacificum; test: Growth-inhibition rate measurement at 50 mg/L, 24 h; assay type: cell-based, Alexandrium pacificum; details: for inhibition at 50 µg/mL: Alexandrium pacificum, read-out: inhibition rate against A. pacificum
Protocol: as §1
(§4) The stock solutions of bacillamide A and different BDs were prepared in dimethyl sulfoxide (DMSO) with the requisition amount. […] The controls received the same volume of DMSO. The inhibitory activities of bacillamide A, different BDs, and positive controls were screened by 96 well microtiter plates at different concentrations. Inhibition ratios (IRs) of cupric sulfate (50 mg/L, positive control), bacillamide A (50 mg/L), and BDs (50 mg/L) were calculated on algae using Equation (1). (1) IR=Cc0-Cex/Cc0×100%
(§5) The CC0 and Cex, respectively, represent the algal densities of the control and experimental groups.

[5] = system: P. minimum; test: as above; assay type: cell-based, Prorocentrum minimum; details: for inhibition at 50 µg/mL: Prorocentrum minimum, read-out: inhibition rate against P. minimum
Protocol: as §1, §4, §5

[6] = system: S. costatum; test: as above; assay type: cell-based, Skeletonema costatum; details: for inhibition at 50 µg/mL: Skeletonema costatum, read-out: inhibition rate against S. costatum
Protocol: as §1, §4, §5

[7] = system: zebrafish; test: Zebrafish acute toxicity assay; assay type: in vivo; details: zebrafish
Protocol: Zebrafish acute toxicity of bacillamide A and synthesized BDs were evaluated at 0.1 mg/L, 1 mg/L, and 10 mg/L, respectively. Diuron and CuSO4 were used as positive controls. The commercial zebrafish (body length > 3.0 cm) were domesticated in aerated tap water for 24 h, fed once daily for seven consecutive days, and stopped being fed before the experiment.
4. Acute toxicity table S1.
Compound Concentration Survival percent Acute
aAccording to the Guide for Environmental Safety Assessment of Chemical Pesticides
4 groups and treated with different compounds for 96 h.

With `O=C(NCCc1c[nH]c2ccccc12)c1csc(-c2cccs2)n1` [Compound 6e] the melting point was 189 to 190 °C.

In the case of `CN(C)C(=O)Nc1ccc(Cl)c(Cl)c1` [Diuron, reference compound], the EC50 [1] is reported as 4.32 ± 0.14 µg/mL (≈ 18.5 µM), the EC50 [2] is reported as 4.72 ± 0.41 µg/mL (≈ 20.2 µM) and the EC50 [3] is reported as 5.69 ± 0.46 µg/mL (≈ 24.4 µM).

Work on `O=C(Nc1ccccc1)c1csc(-c2ccccc2)n1` [Compound 7e] yielded an EC50 ([1]; Mean ± SD, n = 3) of 1.1 ± 0.31 µg/mL (≈ 3.92 µM), an EC50 ([2]; Mean ± SD, n = 3) of 3.23 ± 0.39 µg/mL (≈ 11.5 µM) and an inhibition at 50 µg/mL [4] of 70 to 95%. It also gave an EC50 [3] of 0.69 ± 0.07 µg/mL (≈ 2.46 µM).

For `CC(C)(C)OC(=O)NCCNC(=O)c1csc(-c2ccccc2)n1` [Compound 7f], the “inhibition rate against P. minimum” value [5] was “lost most of its algicidal activity”, the melting point was 162 to 163 °C and the “inhibition rate against A. pacificum” value [4] was “lost most of its algicidal activity”.

With `O=C(NCCc1c[nH]c2ccccc12)c1csc(-c2ccccc2)n1` [Compound 6a] the EC50 ([1]; Mean ± SD, n = 3) was 0.11 ± 0.02 µg/mL (≈ 0.317 µM), the “fold more potent than CuSO4” value ([1]; from EC50 against S. costatum) was 28 fold and the “fold more potent than Diuron” value ([1]; from EC50 against S. costatum) was 39 fold. For the same compound, the “fold more potent than bacillamide A” value ([1]; from EC50 against S. costatum) was 23 fold, the EC50 ([2]; Mean ± SD, n = 3) was 1.74 ± 0.4 µg/mL (≈ 5.01 µM) and the inhibition at 50 µg/mL [4] was 70 to 95%. The EC50 [3] was 3.32 ± 0.79 µg/mL (≈ 9.56 µM), the inhibition at 50 µg/mL [6] was over 70% and the Survival percent ([7]; 0.1 mg/L, 0h) was 100. The Survival percent ([7]; 0.1 mg/L, 24h) was 100, the Survival percent ([7]; 0.1 mg/L, 48h) was 100 and the Survival percent ([7]; 0.1 mg/L, 72h) was 100. It also gave a Survival percent ([7]; 0.1 mg/L, 96h) of 100, a Survival percent ([7]; 1 mg/L, 0h) of 100 and a Survival percent ([7]; 1 mg/L, 24h) of 83. For the same compound, the Survival percent ([7]; 1 mg/L, 48h) was 80, the Survival percent ([7]; 1 mg/L, 72h) was 80 and the Survival percent ([7]; 1 mg/L, 96h) was 73. For the same compound, the Survival percent ([7]; 10 mg/L, 0h) was 100, the Survival percent ([7]; 10 mg/L, 24h) was 0 and the Survival percent ([7]; 10 mg/L, 48h) was 0. It also gave a Survival percent ([7]; 10 mg/L, 72h) of 0 and a Survival percent ([7]; 10 mg/L, 96h) of 0.

`NCCNC(=O)c1csc(-c2ccccc2)n1` [Compound 7g] gave an EC50 ([1]; Mean ± SD, n = 3) of 2.28 ± 0.37 µg/mL (≈ 9.22 µM), an EC50 ([2]; Mean ± SD, n = 3) of 2.02 ± 0.27 µg/mL (≈ 8.17 µM) and an inhibition at 50 µg/mL [5] of 76.9%. It also gave a melting point of 173 to 174 °C and an EC50 [3] of 3.42 ± 0.13 µg/mL (≈ 13.8 µM).

`O=C(NCCc1ccccc1)c1csc(-c2ccccc2)n1` [Compound 7c] gave an EC50 ([1]; Mean ± SD, n = 3) of 0.24 ± 0.058 µg/mL (≈ 0.778 µM), an EC50 ([2]; Mean ± SD, n = 3) of 3.38 ± 0.84 µg/mL (≈ 11 µM) and an inhibition at 50 µg/mL [5] of 74.7%. The inhibition at 50 µg/mL [4] was 70 to 95% and the EC50 [3] was 0.53 ± 0.32 µg/mL (≈ 1.72 µM).

With `O=C(NCCc1c[nH]c2ccccc12)c1csc(-c2ccccc2[N+](=O)[O-])n1` [Compound 6b] the melting point was 122 to 123 °C.

`COc1ccc2[nH]cc(CCNC(=O)c3csc(-c4ccccc4)n3)c2c1` [Compound 7b] showed an EC50 ([1]; Mean ± SD, n = 3) of 0.37 ± 0.07 µg/mL (≈ 0.98 µM), an EC50 ([2]; Mean ± SD, n = 3) of 1.32 ± 0.38 µg/mL (≈ 3.5 µM) and an inhibition at 50 µg/mL [5] of 82.3%. It also gave a melting point of 164 to 165 °C and an EC50 [3] of 0.72 ± 0.021 µg/mL (≈ 1.91 µM).

Work on `CN(C)CCNC(=O)c1csc(-c2ccccc2)n1` [Compound 7d] yielded an EC50 ([1]; Mean ± SD, n = 3) of 0.77 ± 0.21 µg/mL (≈ 2.8 µM), an EC50 ([2]; Mean ± SD, n = 3) of 3.22 ± 0.39 µg/mL (≈ 11.7 µM) and an inhibition at 50 µg/mL [4] of 70 to 95%. The EC50 [3] was 2.02 ± 0.54 µg/mL (≈ 7.34 µM).

Compound `CCOc1ccc(-c2nc(C(=O)NCCc3c[nH]c4ccccc34)cs2)cc1` [Compound 6c] has an EC50 ([1]; Mean ± SD, n = 3) of 0.51 ± 0.04 µg/mL (≈ 1.3 µM), an EC50 ([2]; Mean ± SD, n = 3) of 1.29 ± 0.08 µg/mL (≈ 3.3 µM) and an inhibition at 50 µg/mL [5] of 70.8%. The melting point was 184 to 185 °C, the EC50 [3] was 2.43 ± 0.42 µg/mL (≈ 6.21 µM) and the “inhibition rate against S. costatum” value [6] was 72.6%. For the same compound, the inhibition at 50 µg/mL [6] was over 70%.
